# Laboratory results reported in ChEMBL document CHEMBL1201862, “PubChem BioAssay data set” (2004).
# Calls of active or inactive are those of the source.
# Experiments:
# HT-1080 = experiment: cytotoxicity in HT1080 fibrosarcoma cells, cell-based, fluorescence readout (AID 620); type: functional; conditions: Homo sapiens
# [1] = target: T1, Oxysterols receptor LXR-beta (Homo sapiens, UniProt P55055); experiment: LXR agonists, Gal4 luciferase reporter, dose response, counter-screen for ssDAF-12 agonist project, cell-based, luminescence, HEK293, S. stercoralis campaign (AID 720737); type: functional; conditions: read-out: IC50 (the source's name)
# T1 sequence (P55055 whole entry): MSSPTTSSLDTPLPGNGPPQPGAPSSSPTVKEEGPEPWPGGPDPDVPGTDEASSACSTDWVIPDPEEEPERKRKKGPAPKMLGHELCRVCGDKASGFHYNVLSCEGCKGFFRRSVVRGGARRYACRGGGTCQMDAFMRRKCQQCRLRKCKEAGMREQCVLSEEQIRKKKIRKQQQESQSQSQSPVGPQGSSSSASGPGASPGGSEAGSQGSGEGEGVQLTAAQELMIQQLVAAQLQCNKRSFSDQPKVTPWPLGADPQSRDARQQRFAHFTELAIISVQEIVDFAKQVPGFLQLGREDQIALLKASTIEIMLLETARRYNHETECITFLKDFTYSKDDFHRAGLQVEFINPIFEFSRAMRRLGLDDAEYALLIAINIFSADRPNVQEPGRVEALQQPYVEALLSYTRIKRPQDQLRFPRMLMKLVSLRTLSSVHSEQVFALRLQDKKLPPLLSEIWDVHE
# [2] = Luminescence-based cell-based high throughput dose response assay to identify activators of the DAF-12 from the parasite S. stercoralis (ssDAF-12).; type: functional
# Estrogen receptor = target: T2, Estrogen receptor (Homo sapiens, UniProt P03372); experiment: potentiators of ERα–SRC-1 coactivator binding, dose response, biochemical, TR-FRET, ERα LBD (AID 737)
# T2 sequence (P03372 whole entry): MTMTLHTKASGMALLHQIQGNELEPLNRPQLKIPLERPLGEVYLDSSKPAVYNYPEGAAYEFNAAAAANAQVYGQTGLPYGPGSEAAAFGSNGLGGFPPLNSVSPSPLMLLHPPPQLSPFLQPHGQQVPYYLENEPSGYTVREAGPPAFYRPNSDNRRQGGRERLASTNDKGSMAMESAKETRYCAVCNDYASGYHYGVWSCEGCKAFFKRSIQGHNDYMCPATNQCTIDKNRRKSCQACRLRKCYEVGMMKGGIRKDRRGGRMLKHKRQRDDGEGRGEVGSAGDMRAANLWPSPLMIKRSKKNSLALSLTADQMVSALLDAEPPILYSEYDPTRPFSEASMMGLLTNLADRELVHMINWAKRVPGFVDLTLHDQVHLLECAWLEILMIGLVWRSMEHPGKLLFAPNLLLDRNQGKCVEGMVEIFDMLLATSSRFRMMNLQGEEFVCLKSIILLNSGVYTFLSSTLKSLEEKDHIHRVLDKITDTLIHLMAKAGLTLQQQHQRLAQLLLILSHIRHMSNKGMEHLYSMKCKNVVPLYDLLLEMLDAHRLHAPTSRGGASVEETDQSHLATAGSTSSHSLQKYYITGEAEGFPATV
# [3] = target: T1, Oxysterols receptor LXR-beta; type: functional, cell-based
# [4] = target: Luciferin 4-monooxygenase (Photinus pyralis, UniProt P08659); experiment: Counter Screen for Luciferase-based Assay Positives. [Related pubchem assays: 620, 618, 411 ]
# cells [5] = experiment: cells
# [6] = target: Protein-tyrosine kinase 2-beta (Homo sapiens, UniProt Q14289);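 further: potency of inhibitors of PYK2 kinase phosphorylation of poly-GT substrate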
# [7] = P. falciparum Dd2 growth inhibitors, dose response, SYBR Green, dry powder samples, set 4 (AID 1159572); type: functional, cell-based
# cells [8] = conditions: HEK293
# [9] = HeLa 2N DNA content increase, dose response, cell-based, IC50 (AID 1117349); type: functional
# [10] = HeLa 4N DNA content increase, dose response, cell-based, IC50 (AID 1117351); type: functional
# [11] = SK-MEL-5 parental cell viability reduction, dose response, orthogonal assay for MITF inhibitor project, CellTiter-Glo luminescence, dry powder, set 8 (AID 651586); type: functional, cell-based
# [12] = TRPM1 promoter luciferase reporter signal decrease, dose response, MITF inhibitor project, cell-based, SK-MEL-5, dry powder, set 8 (AID 624430); type: functional
# [13] = TRPM1 promoter luciferase reporter signal decrease, dose response, MITF inhibitor project, cell-based, SK-MEL-5, dry powder, set 9 (AID 651588); type: functional
# [14] = MITF: Counter assay: A375 proliferation Measured in Cell-Based System Using Plate Reader - 2084-03_Inhibitor_Dose_DryPowder_Activity_Set8.; type: functional; conditions: A-375
# [15] = MITF Orthogonal Assay: SK-MEL-5 CTG Assay Measured in Cell-Based System Using Plate Reader - 2084-02_Inhibitor_Dose_DryPowder_Activity_Set7.; type: functional
# [16] = MALME3 melanoma cell viability reduction, dose response, orthogonal assay for MITF inhibitor project, CellTiter-Glo luminescence, dry powder, set 5 (AID 651584); type: functional, cell-based; conditions: MALME-3
# [17] = MITF Orthogonal Assay: MALME3 CTG Assay Measured in Cell-Based System Using Plate Reader - 2084-04_Inhibitor_Dose_DryPowder_Activity_Set6.; type: functional; conditions: MALME-3
# [18] = A375 melanoma cell viability loss, dose response, counter-screen for MITF modulator project, CellTiter-Glo luminescence, dry powder, set 9 (AID 651591); type: functional, cell-based; conditions: A-375
# Protein-tyrosine kinase 2-beta, sequence (Q14289 whole entry): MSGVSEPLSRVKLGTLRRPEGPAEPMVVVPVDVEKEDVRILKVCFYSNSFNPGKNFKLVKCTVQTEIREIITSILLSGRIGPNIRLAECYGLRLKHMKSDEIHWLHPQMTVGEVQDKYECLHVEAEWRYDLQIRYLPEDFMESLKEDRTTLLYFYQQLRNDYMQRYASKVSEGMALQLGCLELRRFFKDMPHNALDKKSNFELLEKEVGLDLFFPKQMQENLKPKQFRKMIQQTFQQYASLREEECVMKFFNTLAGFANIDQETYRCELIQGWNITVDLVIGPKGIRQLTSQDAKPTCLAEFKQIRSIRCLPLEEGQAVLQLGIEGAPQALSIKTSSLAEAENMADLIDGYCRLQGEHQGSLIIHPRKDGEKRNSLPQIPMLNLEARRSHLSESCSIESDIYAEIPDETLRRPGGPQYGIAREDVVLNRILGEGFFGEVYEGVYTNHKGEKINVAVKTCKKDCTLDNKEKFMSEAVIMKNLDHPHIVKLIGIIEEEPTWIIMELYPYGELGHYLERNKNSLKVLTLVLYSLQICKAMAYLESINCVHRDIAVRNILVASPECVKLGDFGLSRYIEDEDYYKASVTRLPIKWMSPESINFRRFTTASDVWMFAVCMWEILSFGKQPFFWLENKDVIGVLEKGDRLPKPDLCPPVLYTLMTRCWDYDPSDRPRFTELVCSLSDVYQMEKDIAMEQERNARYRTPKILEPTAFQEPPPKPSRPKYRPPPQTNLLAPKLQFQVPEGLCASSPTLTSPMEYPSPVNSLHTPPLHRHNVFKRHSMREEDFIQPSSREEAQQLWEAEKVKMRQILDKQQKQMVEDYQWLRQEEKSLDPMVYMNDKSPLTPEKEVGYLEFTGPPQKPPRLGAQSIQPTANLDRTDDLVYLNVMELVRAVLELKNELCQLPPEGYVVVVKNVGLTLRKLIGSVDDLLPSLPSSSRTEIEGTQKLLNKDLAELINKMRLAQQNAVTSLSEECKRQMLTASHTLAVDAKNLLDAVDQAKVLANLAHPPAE
# Luciferin 4-monooxygenase, sequence (P08659 whole entry): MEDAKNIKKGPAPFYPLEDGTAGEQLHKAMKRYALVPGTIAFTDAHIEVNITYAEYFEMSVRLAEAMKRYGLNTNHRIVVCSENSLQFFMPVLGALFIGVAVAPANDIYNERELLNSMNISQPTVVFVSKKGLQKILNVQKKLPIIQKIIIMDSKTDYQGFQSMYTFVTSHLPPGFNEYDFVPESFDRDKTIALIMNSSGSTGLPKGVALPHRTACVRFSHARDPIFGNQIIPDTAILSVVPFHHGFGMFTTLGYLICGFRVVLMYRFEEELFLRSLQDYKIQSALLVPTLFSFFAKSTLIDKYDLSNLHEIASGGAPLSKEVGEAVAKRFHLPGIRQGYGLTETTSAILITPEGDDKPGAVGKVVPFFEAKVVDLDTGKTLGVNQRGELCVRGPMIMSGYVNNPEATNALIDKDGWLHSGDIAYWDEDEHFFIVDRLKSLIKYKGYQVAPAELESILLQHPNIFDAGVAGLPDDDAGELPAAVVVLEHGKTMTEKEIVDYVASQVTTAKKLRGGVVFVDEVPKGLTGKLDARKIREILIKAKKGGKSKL
smiles,measurement,setting,value
O=C1C(c2ccnc3ccccc23)=C(O)c2ccccc21,EC50,HT-1080,> 50 µM (not active)
same,EC50,[1],> 67.5 µM (inactive)
same,IC50,[2],> 67.5 µM (inactive)
same,EC50,Estrogen receptor,6.74 µM (active)
same,EC50,[3],> 67.5 µM (inactive)
same,EC50,[4],0.78 µM (active)
same,EC50,cells [5],> 67.5 µM (inactive)
same,IC50,[6],3.11 µM (active)
COc1ccc2c3c([nH]c2c1)[C@H](CO)N(C(C)=O)CC31CCN(C(C)=O)CC1,AC50,[7],16.5 µM (active)
COc1cc(C)ccc1OCCn1cnc2ccccc21,AC50,cells [8],> 52 µM (inactive)
CC(C)(C)C(=O)OCOP(=O)(COCCn1cnc2c(N)ncnc21)OCOC(=O)C(C)(C)C [ADEFOVIR DIPIVOXIL],IC50,[9],> 10 µM (inactive)
same,IC50,[10],> 10 µM (inactive)
O=C1C(Nc2cccc(Cl)c2)=C(N2CCCC2)C(=O)c2ccccc21,AC50,[11],> 70 µM (inactive)
same,AC50,[12],8.39 µM (active)
same,AC50,[13],46.8 µM (active)
same,AC50,[14],> 70 µM (inactive)
same,AC50,[15],5.52 µM (active)
same,AC50,[16],> 70 µM (inactive)
same,AC50,[17],> 70 µM (inactive)
same,AC50,[18],> 70 µM (inactive)
